Results reported in article PMC12618397 (Clinical Pharmacokinetics, 2025).
Read-outs that look alike come from different tables or passages of the source.

How the values were obtained:
OATP1B = conditions: oral glyburide 1.25 mg, i.v. infusion of 600 mg rifampicin, over 24 h; cited from earlier work
[1] = cited from earlier work
[2] = format: in vivo, humans; conditions: final model
plasma protein = conditions: cited from earlier work

COc1ccc(Cl)cc1C(=O)NCCc1ccc(S(=O)(=O)NC(=O)NC2CCCCC2)cc1 [glyburide]
increase of plasma AUC vs baseline (OATP1B): 125 ± 51.5% | volume of distribution outside central compartment (previous estimates) ([1]; 95% CI 1.3–3.2 L derived from reported estimates): 2 L | central volume of distribution ([1]; Rydberg et al.): 3.63 L | elimination rate ([1]; Rydberg et al.): 1.59 h⁻^1 | central volume of distribution ([1]; traditional PK modeling, blood samples): 3.8 L

COc1ccc(Cl)cc1C(=O)NCCc1ccc(S(=O)(=O)NC(=O)NC2CCCCC2)cc1 [[^11C]glyburide]
clearance CL=VB×ke [2]: 2.84 L/h | kBP (transfer blood to pancreas) [2]: 5.9 h⁻¹ | kBS (transfer blood to spleen) [2]: 5.9 h⁻¹ | kPB (transfer pancreas to blood) [2]: 138 h⁻¹ | kSB (transfer spleen to blood) [2]: 131 h⁻¹ | kL1B (exchange rate liver to blood) ([2]; without rifampicin): 20 h⁻^1 | binding to plasma protein (plasma protein): > 99%
